Measurements published in publication PMC8699473, “An Easily Expandable Multi-Drug LC-MS Assay for the Simultaneous Quantification of 57 Oral Antitumor Drugs in Human Plasma” (Cancers, 2021).

Legend:
[1] = Short-term stability in spiked pooled human plasma (bench-top, 4 °C, 56 °C)
[2] = Autosampler stability of ready for injection samples; format: physicochemical, human
[3] = Long-term stability in spiked pooled human plasma
[4] = Freeze-thaw stability in spiked pooled human plasma; format: physicochemical
[5] = parameters: method as in supplement references [1-55] as printed per drug; conditions: minimum steady-state blood plasma concentration after multiple dose administration; ref supplement references [1-55] per drug; cited from earlier work

In the case of O=C1CCC(N2C(=O)c3ccccc3C2=O)C(=O)N1 (stereo not shown) [Thalidomide], the “Short-time stability (24h, 4°C, without daylight) Accuracy [%]” value ([1]; validation standard 2xLLOV) is reported as 64.9%, the “Short-time stability (24h, 4°C, without daylight) Accuracy [%]” value ([1]; validation standard LLOV) is reported as 69.3% and the “Short-time stability (24h, 4°C, without daylight) Accuracy [%]” value ([1]; validation standard MOV) is reported as 60.7%. The “Short-time stability (24h, 4°C, without daylight) Accuracy [%]” value ([1]; validation standard ULOV) was 55.2%, the “Short-time stability (24h, RT, with daylight) Accuracy [%]” value ([1]; validation standard ULOV) was 1.7% and the “Short-time stability (24h, RT, without daylight) Accuracy [%]” value ([1]; validation standard ULOV) was 1.7%. The “Autosampler (24h, 4°C) Accuracy [%]” value ([2]; validation standard 2xLLOV) was 102.3%, the “Autosampler (72h, 4°C) Accuracy [%]” value ([2]; validation standard 2xLLOV) was 101.6% and the “Autosampler (24h, 4°C) Accuracy [%]” value ([2]; validation standard LLOV) was 98.2%. The “Autosampler (72h, 4°C) Accuracy [%]” value ([2]; validation standard LLOV) was 98.0%, the “Autosampler (24h, 4°C) Accuracy [%]” value ([2]; validation standard MOV) was 105.2% and the “Autosampler (72h, 4°C) Accuracy [%]” value ([2]; validation standard MOV) was 96.2%. For the same molecule, the “Autosampler (24h, 4°C) Accuracy [%]” value ([2]; validation standard ULOV) was 96.9%, the “Autosampler (72h, 4°C) Accuracy [%]” value ([2]; validation standard ULOV) was 97.8% and the “Long-term stability, 1 month, -20°C Accuracy [%]” value ([3]; validation standard 2xLLOV) was 75.6%. For the same molecule, the “Long-term stability, 1 month, -80°C Accuracy [%]” value ([3]; validation standard 2xLLOV) was 74.9%, the “Long-term stability, 2 month, -20°C Accuracy [%]” value ([3]; validation standard 2xLLOV) was 58.1% and the “Long-term stability, 2 month, -80°C Accuracy [%]” value ([3]; validation standard 2xLLOV) was 79.7%. For the same molecule, the “Long-term stability, 3 month, -20°C Accuracy [%]” value ([3]; validation standard 2xLLOV) was 50.7%, the “Long-term stability, 3 month, -80°C Accuracy [%]” value ([3]; validation standard 2xLLOV) was 79.8% and the “Long-term stability, 1 month, -20°C Accuracy [%]” value ([3]; validation standard LLOV) was 71.4%. The “Long-term stability, 1 month, -80°C Accuracy [%]” value ([3]; validation standard LLOV) was 76.7%, the “Long-term stability, 2 month, -20°C Accuracy [%]” value ([3]; validation standard LLOV) was 57.5% and the “Long-term stability, 2 month, -80°C Accuracy [%]” value ([3]; validation standard LLOV) was 72.7%. The “Long-term stability, 3 month, -20°C Accuracy [%]” value ([3]; validation standard LLOV) was 43.9%, the “Long-term stability, 3 month, -80°C Accuracy [%]” value ([3]; validation standard LLOV) was 76.7% and the “Long-term stability, 1 month, -20°C Accuracy [%]” value ([3]; validation standard MOV) was 66.7%. For the same molecule, the “Long-term stability, 1 month, -80°C Accuracy [%]” value ([3]; validation standard MOV) was 73.1%, the “Long-term stability, 2 month, -20°C Accuracy [%]” value ([3]; validation standard MOV) was 57.0% and the “Long-term stability, 2 month, -80°C Accuracy [%]” value ([3]; validation standard MOV) was 77.9%. For the same molecule, the “Long-term stability, 3 month, -20°C Accuracy [%]” value ([3]; validation standard MOV) was 50.8%, the “Long-term stability, 3 month, -80°C Accuracy [%]” value ([3]; validation standard MOV) was 75.0% and the “Long-term stability, 1 month, -20°C Accuracy [%]” value ([3]; validation standard ULOV) was 68.6%. The “Long-term stability, 1 month, -80°C Accuracy [%]” value ([3]; validation standard ULOV) was 66.3%, the “Long-term stability, 2 month, -20°C Accuracy [%]” value ([3]; validation standard ULOV) was 42.5% and the “Long-term stability, 2 month, -80°C Accuracy [%]” value ([3]; validation standard ULOV) was 79.5%. The “Long-term stability, 3 month, -20°C Accuracy [%]” value ([3]; validation standard ULOV) was 33.5%, the “Long-term stability, 3 month, -80°C Accuracy [%]” value ([3]; validation standard ULOV) was 78.0% and the “Freeze-Thaw Accuracy [%]” value ([4]; validation standard 2xLLOV) was 78.3%. For the same molecule, the “Freeze-Thaw Accuracy [%]” value ([4]; validation standard LLOV) was 83.3%, the “Freeze-Thaw Accuracy [%]” value ([4]; validation standard MOV) was 74.7% and the “Freeze-Thaw Accuracy [%]” value ([4]; validation standard ULOV) was 72.8%. For the same molecule, the “cmin” value [5] was 600 ng/mL.
